Assay [1] addresses T1, DNA topoisomerase 1 (Homo sapiens) (UniProt P11387).
T1 sequence (whole entry): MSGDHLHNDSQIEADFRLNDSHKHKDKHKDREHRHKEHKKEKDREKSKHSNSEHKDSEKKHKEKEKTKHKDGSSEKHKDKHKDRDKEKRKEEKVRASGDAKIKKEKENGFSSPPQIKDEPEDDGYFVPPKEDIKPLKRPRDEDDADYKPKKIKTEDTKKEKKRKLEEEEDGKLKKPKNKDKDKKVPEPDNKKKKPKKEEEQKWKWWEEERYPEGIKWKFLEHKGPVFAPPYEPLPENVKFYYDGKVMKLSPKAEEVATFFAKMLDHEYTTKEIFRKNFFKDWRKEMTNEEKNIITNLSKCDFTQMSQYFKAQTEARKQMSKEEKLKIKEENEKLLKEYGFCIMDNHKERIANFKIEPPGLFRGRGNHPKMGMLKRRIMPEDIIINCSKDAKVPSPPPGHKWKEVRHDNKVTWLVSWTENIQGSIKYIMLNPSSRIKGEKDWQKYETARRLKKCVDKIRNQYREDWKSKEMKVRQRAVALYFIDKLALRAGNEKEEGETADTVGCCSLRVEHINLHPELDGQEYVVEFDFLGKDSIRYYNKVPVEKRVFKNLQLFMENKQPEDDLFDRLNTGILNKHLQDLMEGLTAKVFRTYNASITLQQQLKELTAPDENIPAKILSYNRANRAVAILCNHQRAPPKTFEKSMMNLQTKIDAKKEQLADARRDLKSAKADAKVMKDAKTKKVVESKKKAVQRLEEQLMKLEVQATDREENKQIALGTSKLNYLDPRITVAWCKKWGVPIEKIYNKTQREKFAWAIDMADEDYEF
Put plainly: Inhibition of human recombinant DNA topoisomerase 1-mediated DNA cleavage at 0.1 to 100 uM after 20 mins.

The target of assay [2] is T1, DNA topoisomerase 1 (Homo sapiens). Put plainly: Reversible inhibition of human recombinant DNA topoisomerase 1-mediated DNA cleavage at 0.1 to 100 uM after 20 mins.
Assay [3] shares this target. Kind of assay: Binding affinity to human recombinant DNA topoisomerase 1 at 20 uM by electron paramagnetic resonance analysis.

Activity calls are given as the source filed them. The rule behind the calls is not given here.

For the molecule `CC[C@@]1(O)C(=O)OCc2c1cc1n(c2=O)Cc2c-1nc1ccccc1c2C(=O)NC1CC(C)(C)N([O])C(C)(C)C1`, the inhibition entry in assay [1] was “Active”.
Consider `CC[C@@]1(O)C(=O)OCc2c1cc1n(c2=O)Cc2c-1nc1ccccc1c2/C=N/C1CC(C)(C)N([O])C(C)(C)C1`, for which the inhibition result in assay [2] and in assay [1] was “Active” in each case. In addition, in assay [3], the outcome was Active.

The values above are taken from ChEMBL document CHEMBL1671791, “Electron paramagnetic resonance (EPR) study of spin-labeled camptothecin derivatives: a different look of the ternary complex” (J Med Chem, 2011).
